In patent US20230416298A1, “PRODRUGS OF NEUROACTIVE STEROIDS” (Brii Biosciences, Inc., priority 2020, published 2023):

Assays:
Plasma stability = type: in vitro ADME; conditions: 37° C.; for Stability in Human Plasma Formation of parent compound: 2 μM, Yes/No; for half-life at 2 μM: pooled plasma, pH 7.4, human plasma, time points 0, 10, 30, 60 and 120 min
Procedure: The pooled frozen plasma was thawed in a water bath at 37° C. prior to experiment. Plasma was centrifuged at 4000 rpm for 5 min and the clots were removed if any. The pH will be adjusted to 7.4±0.1 if required.
Preparation of test compounds and positive control (propantheline bromide): 1 mM intermediate solution was prepared by diluting 10 μL of the stock solution with 90 μL MeOH; 1 mM intermediate of positive control Propantheline was prepared by diluting 10 μL of the stock solution with 90 μL ultrapure water. 100 μM dosing solution was prepared by diluting 20 μL of the intermediate solution (1 mM) with 180 μL MeOH. 98 μL of blank plasma was spiked with 2 μL of dosing solution (100 μM) to achieve 2 μM of the final concentration in duplicate and samples were incubated at 37° C. in a water bath. At each time point (0,10, 30, 60 and 120 min), 400 μL of stop solution (0.1% FA in MeOH containing 200 ng/mL tolbutamide and 200 ng/mL Labetalol) was added to precipitate protein and mixed thoroughly. Centrifuged sample plates at 4,000 rpm for 10 min. An aliquot of supernatant (100 μL) was transferred from each well to another plates.
Data analysis: The % remaining of test compound after incubation in plasma was calculated using following equation:
% Remaining=[…]×(PAR at appointed incubation time/PAR at T0 time)
where PAR is the peak area ratio of analyte versus internal standard (IS) (LC/MS/MS mobile phase condition: 0.1% Formic Acid in Water/0.1% Formic Acid in Acetonitrile. The appointed incubation time points are TO (0 min), Tn (n=0, 10, 30, 60, 120 min).

Liver S9 stability = type: in vitro ADME; conditions: human liver S9, 37° C.; for half-life at 1 μM: time points up to 60 min; for Stability in Human Liver S9 Formation of parent compound: Yes/No
Procedure: Intermediate solution: Dilute 5 μL of compounds or controls (7-ethoxycoumarin) from stock solution (10 mM) with 495 μL MeOH (Conc.: 100 μM, 1% DMSO, 99% MeOH). Stop solution: Cold ACN (including 100 ng/mL Tolbutamide and Labetalol as internal standard). Add 2 μL test compound or control working solution/well to all plates (T0, T5, T10, T20, T30, T60, NCF60) except matrix blank. Add 600 μL/well stop solution (cold in 4° C., including 100 ng/mL Tolbutamide/100 ng/mL Labetalol) to terminate the TO plate, then put it on ice. Dispense 840 μL/well S9 solution to 96-well plate as reservoir according to plate map. Then add 100 μL/well to every plate by Apricot. Incubate S9 solution and compound at 37° C. for about 10 min except NCF60 and TO. After adding S9 solution and 98 μ LPB buffer to NCF60, incubate at 37° C. without pre-warming, start timer 1. After 60 min, add 600 μL/well stop solution to terminate the reaction. After pre-warming, dispense 760 μL/well cofactor solution to 96-well plate as reservoir according to plate map. Then add 98 μL/well to every plate by Apricot to start reaction. Incubate at 37° C., start timer 2, Add 600 μL/well stop solution (cold in 4° C., including 100 ng/mL Tolbutamide and Labetalol) to terminate the reaction. Samples are centrifuged at 4000 rpm for 20 min. While centrifuging, load 8×new 96-well plate with 300 μL HPLC water, then transfer 100 μL supernatant, mix with water for LC/MS/MS, transferred to Bioanalytical Services for LC-MS/MS analysis. Use equation of first order kinetics to calculate t1/2 and CL: Equation of first order kinetics: […]

CC(=O)[C@H]1CC[C@H]2[C@@H]3CC[C@H]4C[C@H](OC(=O)N(C)CCOC(=O)C(C)C)CC[C@]4(C)[C@H]3CC[C@]12C [Example 23, 2-[[(3R,5S,8R,9S,10S,13S,14S,17S)-17-acetyl-10,13-dimethyl-2,3,4,5,6,7,8,9,11,12,14,15,16,17-tetradecahydro-1H-cyclopenta[a]phenanthren-3-yl]oxycarbonyl-methyl-amino]ethyl 2-methylpropanoate]
Stability in Human Plasma Formation of parent compound (Plasma stability): No | half-life at 2 μM (Plasma stability): 50 to 200 min | half-life at 1 μM (Liver S9 stability): < 50 min | Stability in Human Liver S9 Formation of parent compound (Liver S9 stability): Yes

CC(=O)[C@H]1CC[C@H]2[C@@H]3CC[C@H]4C[C@H](OC(=O)NCCOC(=O)C(C)C)CC[C@]4(C)[C@H]3CC[C@]12C [Example 22, 2-[[(3R,5S,8R,9S,10S,13S,14S,17S)-17-acetyl-10,13-dimethyl-2,3,4,5,6,7,8,9,11,12,14,15,16,17-tetradecahydro-1H-cyclopenta[a]phenanthren-3-yl]oxycarbonylamino]ethyl 2-methylpropanoate]
Stability in Human Plasma Formation of parent compound (Plasma stability): No | half-life at 2 μM (Plasma stability): > 200 min | half-life at 1 μM (Liver S9 stability): < 50 min | Stability in Human Liver S9 Formation of parent compound (Liver S9 stability): Yes

CC(=O)[C@H]1CC[C@H]2[C@@H]3CC[C@H]4C[C@H](OC(=O)OCc5oc(=O)oc5C)CC[C@]4(C)[C@H]3CC[C@]12C [Example 20, [(3R,5S,8R,9S,10S,13S,14S,17S)-17-acetyl-10,13-dimethyl-2,3,4,5,6,7,8,9,11,12,14,15,16,17-tetradecahydro-1H-cyclopenta[a]phenanthren-3-yl](5-methyl-2-oxo-1,3-dioxol-4-yl)methyl carbonate]
Stability in Human Plasma Formation of parent compound (Plasma stability): Yes | half-life at 2 μM (Plasma stability): < 50 min | half-life at 1 μM (Liver S9 stability): < 50 min | Stability in Human Liver S9 Formation of parent compound (Liver S9 stability): Yes

CCCCOC(=O)O[C@@H]1CC[C@@]2(C)[C@@H](CC[C@@H]3[C@@H]2CC[C@]2(C)[C@@H](C(C)=O)CC[C@@H]32)C1 [Example 21, [(3R,5S,8R,9S,10S,13S,14S,17S)-17-acetyl-10,13-dimethyl-2,3,4,5,6,7,8,9,11,12,14,15,16,17-tetradecahydro-1H-cyclopenta[a]phenanthren-3-yl]butyl carbonate]
Stability in Human Plasma Formation of parent compound (Plasma stability): No | half-life at 2 μM (Plasma stability): > 200 min | half-life at 1 μM (Liver S9 stability): < 50 min | Stability in Human Liver S9 Formation of parent compound (Liver S9 stability): Yes

CC(=O)[C@H]1CC[C@H]2[C@@H]3CC[C@H]4C[C@H](OC(=O)CC5CCCC5)CC[C@]4(C)[C@H]3CC[C@]12C [Example 8, [(3R,5S,8R,9S,10S,13S,14S,17S)-17-acetyl-10,13-dimethyl-2,3,4,5,6,7,8,9,11,12,14,15,16,17-tetradecahydro-1H-cyclopenta[a]phenanthren-3-yl] 3-cyclopentylacetate]
Stability in Human Plasma Formation of parent compound (Plasma stability): No | half-life at 2 μM (Plasma stability): > 200 min | half-life at 1 μM (Liver S9 stability): < 50 min | Stability in Human Liver S9 Formation of parent compound (Liver S9 stability): No

CC(=O)[C@H]1CC[C@H]2[C@@H]3CC[C@H]4C[C@H](OC(=O)OCCN(C)C(=O)C(C)C)CC[C@]4(C)[C@H]3CC[C@]12C [Example 25, (3R,5S,8R,9S,10S,13S,14S,17S)-17-acetyl-10,13-dimethylhexadecahydro-1H-cycl penta[a]phenanthren-3-yl(2-(N-methylisobutyramido)ethyl) carbonate]
Stability in Human Plasma Formation of parent compound (Plasma stability): No | half-life at 2 μM (Plasma stability): > 200 min | half-life at 1 μM (Liver S9 stability): < 50 min | Stability in Human Liver S9 Formation of parent compound (Liver S9 stability): No

CC(=O)[C@H]1CC[C@H]2[C@@H]3CC[C@H]4C[C@H](OC(=O)OCCOC(=O)C(C)C)CC[C@]4(C)[C@H]3CC[C@]12C [Example 19, 2-[[(3R,5S,8R,9S,10S,13S,14S,17S)-17-acetyl-10,13-dimethyl-2,3,4,5,6,7,8,9,11,12,14,15,16,17-tetradecahydro-1H-cyclopenta[a]phenanthren-3-yl]oxycarbonyloxy]ethyl 2-methylpropanoate]
Stability in Human Plasma Formation of parent compound (Plasma stability): No | half-life at 2 μM (Plasma stability): 50 to 200 min | half-life at 1 μM (Liver S9 stability): < 50 min | Stability in Human Liver S9 Formation of parent compound (Liver S9 stability): Yes

CC(=O)[C@H]1CC[C@H]2[C@@H]3CC[C@H]4C[C@H](OC(=O)CCCOC(=O)C(C)C)CC[C@]4(C)[C@H]3CC[C@]12C [Example 15, [(3R,5S,8R,9S,10S,13S,14S,17S)-17-acetyl-10,13-dimethyl-2,3,4,5,6,7,8,9,11,12,14,15,16,17-tetradecahydro-1H-cyclopenta[a]phenanthren-3-yl]4-(2-methylpropanoyloxy)butanoate]
Stability in Human Plasma Formation of parent compound (Plasma stability): No | half-life at 2 μM (Plasma stability): 50 to 200 min | half-life at 1 μM (Liver S9 stability): < 50 min | Stability in Human Liver S9 Formation of parent compound (Liver S9 stability): No

CC(=O)OCCCCC(=O)O[C@@H]1CC[C@@]2(C)[C@@H](CC[C@@H]3[C@@H]2CC[C@]2(C)[C@@H](C(C)=O)CC[C@@H]32)C1 [Example 16, [(3R,5S,8R,9S,10S,13S,14S,17S)-17-acetyl-10,13-dimethyl-2,3,4,5,6,7,8,9,11,12,14,15,16,17-tetradecahydro-1H-cyclopenta[a]phenanthren-3-yl] 5-acetoxypentanoate]
Stability in Human Plasma Formation of parent compound (Plasma stability): No | half-life at 2 μM (Plasma stability): 50 to 200 min | half-life at 1 μM (Liver S9 stability): < 50 min | Stability in Human Liver S9 Formation of parent compound (Liver S9 stability): No

COC(=O)N(C)CCOC(=O)O[C@@H]1CC[C@@]2(C)[C@@H](CC[C@@H]3[C@@H]2CC[C@]2(C)[C@@H](C(C)=O)CC[C@@H]32)C1 [Example 27, [(3R,5S,8R,9S,10S,13S,14S,17S)-17-acetyl-10,13-dimethyl-2,3,4,5,6,7,8,9,11,12,14,15,16,17-tetradecahydro-1H-cyclopenta[a]phenanthren-3-yl]2-(methoxycarbonyl-N-methylamino)ethyl carbonate]
Stability in Human Plasma Formation of parent compound (Plasma stability): No | half-life at 2 μM (Plasma stability): > 200 min | half-life at 1 μM (Liver S9 stability): < 50 min | Stability in Human Liver S9 Formation of parent compound (Liver S9 stability): Yes

CC(=O)OCCCC(C)C(=O)O[C@@H]1CC[C@@]2(C)[C@@H](CC[C@@H]3[C@@H]2CC[C@]2(C)[C@@H](C(C)=O)CC[C@@H]32)C1 (stereo partly drawn) [Example 17, [(3R,5S,8R,9S,10S,13S,14S,17S)-17-acetyl-10,13-dimethyl-2,3,4,5,6,7,8,9,11,12,14,15,16,17-tetradecahydro-1H-cyclopenta[a]phenanthren-3-yl]5-acetoxy-2-methyl-pentanoate]
Stability in Human Plasma Formation of parent compound (Plasma stability): No | half-life at 2 μM (Plasma stability): 50 to 200 min | half-life at 1 μM (Liver S9 stability): < 50 min | Stability in Human Liver S9 Formation of parent compound (Liver S9 stability): No

CC(=O)[C@H]1CC[C@H]2[C@@H]3CC[C@H]4C[C@H](OC(=O)OCCNC(=O)C(C)C)CC[C@]4(C)[C@H]3CC[C@]12C [Example 24, [(3R,5S,8R,9S,10S,13S,14S,17S)-17-acetyl-10,13-dimethyl-2,3,4,5,6,7,8,9,11,12,14,15,16,17-tetradecahydro-1H-cyclopenta[a]phenanthren-3-yl] 2-(2-methylpropanoylamino)ethyl carbonate)]
Stability in Human Plasma Formation of parent compound (Plasma stability): No | half-life at 2 μM (Plasma stability): > 200 min | half-life at 1 μM (Liver S9 stability): < 50 min | Stability in Human Liver S9 Formation of parent compound (Liver S9 stability): No

CC(=O)OCCCC(=O)O[C@@H]1CC[C@@]2(C)[C@@H](CC[C@@H]3[C@@H]2CC[C@]2(C)[C@@H](C(C)=O)CC[C@@H]32)C1 [Example 14, [(3R,5S,8R,9S,10S,13S,14S,17S)-17-acetyl-10,13-dimethyl-2,3,4,5,6,7,8,9,11,12,14,15,16,17-tetradecahydro-1H-cyclopenta[a]phenanthren-3-yl]4-acetoxybutanoate]
Stability in Human Plasma Formation of parent compound (Plasma stability): No | half-life at 2 μM (Plasma stability): 50 to 200 min | half-life at 1 μM (Liver S9 stability): < 50 min | Stability in Human Liver S9 Formation of parent compound (Liver S9 stability): No
